The values that follow come from EP4389746A2, “P2X3 RECEPTOR ANTAGONISTS” (Recordati Industria Chimica E Farmaceutica SPA, priority 2022, dated 2024).

For the assay, the target named is T1, human P2X3 receptor (Homo sapiens, UniProt P56373).
T1 construct: expressed in transfected cells; host or cells: CHO-K1
T1 sequence (P56373 1-397): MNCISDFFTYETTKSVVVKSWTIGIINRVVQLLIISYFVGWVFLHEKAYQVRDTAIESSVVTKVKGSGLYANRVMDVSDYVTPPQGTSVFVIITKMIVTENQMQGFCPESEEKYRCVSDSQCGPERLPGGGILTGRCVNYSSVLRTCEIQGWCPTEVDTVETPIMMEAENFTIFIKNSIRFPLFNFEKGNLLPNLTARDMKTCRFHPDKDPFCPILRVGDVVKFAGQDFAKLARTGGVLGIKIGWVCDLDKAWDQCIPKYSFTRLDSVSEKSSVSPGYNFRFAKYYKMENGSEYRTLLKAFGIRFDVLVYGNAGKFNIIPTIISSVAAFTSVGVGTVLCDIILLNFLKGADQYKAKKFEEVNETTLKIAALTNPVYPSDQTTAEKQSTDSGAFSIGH
Description: Calcium luminescence measurement: human P2X3 receptor activity inhibition (CHO-K1 cells, photoprotein readout, FLEXSTATION). Format: cell-based. As to conditions: CHO-K1 cells co-expressing human P2X3 and Ca2+ sensitive photoprotein; agonist α,β-Met-ATP; read-out: h-P2X3 IC50.

In the case of `CC(C)C1C(=O)N=C2c3ncc(N4CCOCC4)cc3N(Cc3ccc(Cl)cc3)C(=O)N21` (racemic) [Example 22, 6-[(4-Chlorophenyl)methyl]-8-(morpholin-4-yl)-3-(propan-2-yl)imidazo[1,2-c]pyrido[2,3-e]pyrimidine-2,5(3H,6H)-dione], the IC50 stood at 36.8 nM.

As a reminder, the IC50 is the midpoint of a concentration-inhibition curve.
